Data as given in patent US9751919B2, “Antimicrobial compositions comprising a hyaluronic acid binding peptide and a β-lactam antibiotic” (priority 2012, dated 2017).
“And” between values parts separate entries of the source, which are not always exact repeats. Identical values can stand only once. Marks after values point to notes of the source that are not given here.

What was measured:
Experiment in all cases: Checkerboard assay (FIC index)
Conditions in all cases: antibiotic combined with PEP35
E. coli = type: cell-based, Escherichia coli
Method: Checkerboard assays were carried out as described by Bonapace et al.
Diagnostic Microbiology and Infectious Diseases 2002; 44:363-366. In brief, checkerboard assays were performed in 96 well microtitre trays using an 8-by-8 well configuration. […] 96-well custom designed microtitre plates contained 100 ul/well of cation adjusted Mueller-Hinton broth (eg. for Enterobacteriaceae) with or without lysed horse blood (2-5% V/V) [eg. for S. pneumoniae] and were inoculated to achieve a final concentration of approximately 5×10^5 CFU/ml and incubated in ambient air for 24 hours prior to reading. Colony counts were performed periodically to confirm inocula. Quality control was performed every two weeks using a variety of ATCC QC organisms including; S. pneumoniae 49619, S. aureus 29213, E. faecalis 29212, E. coli 25922 and P. aeruginosa 27853. […] All peptides were assessed for synergy with β-lactams and vancomycin. For all antimicrobials as well as the peptides, CLSI criteria were used.
(§1) The fractional inhibitory concentration index (FIC index) was used to interpret synergy, antagonism or additivity/indifference. FIC index=FIC of drug A+FIC of drug B where:
The FIC of drug A and drug B was calculated as follows, FIC drug A=MIC of drug A in combination/MIC of drug A alone and FIC of drug B=MIC of drug B in combination/MIC of drug B alone. Synergy was defined as FIC index ≦0.5, additivity/indifference defined as a FIC between 0.5 and 4 and antagonism defined as an FIC index >4.
(§2) The checkerboard assays were carried out as described by Eliopoulos and Moellering (Chapter 9) in Antibiotic in Laboratory Medicine, Lorian Ed. 1996 as well as Bonapace et al. Diagnostic Microbiology and Infectious Diseases 2002; 44:363-366 and Bonapace et al. Diagnostic Microbiology and Infectious Diseases 2000; 38:43-50. In brief, checkerboard assays were performed in 96 well microtitre trays using an 8-by-8 well configuration. […] 96-well custom designed microtitre plates contained 100 ul/well of cation adjusted Mueller-Hinton broth (eg. for Enterobacteriaceae) with or without lysed horse blood (2-5% V/V) [eg. for S. pneumoniae] and were inoculated to achieve a final concentration of approximately 5×10^5 CFU/ml and incubated in ambient air for 24 hours prior to reading. Colony counts were performed periodically to confirm inocula. Quality control was performed every two weeks using a variety of ATCC QC organisms including; S. pneumoniae 49619, S. aureus 29213, E. faecalis 29212, E. coli 25922 and P. aeruginosa 27853. For all antimicrobials as well as PEP35, CLSI criteria was used.
(§3) The FIC of drug A and drug B is calculated as follows, FIC drug A=MIC of drug A in combination/MIC of drug A alone and FIC of drug B=MIC of drug B in combination/MIC of drug B alone. Synergy is defined as FIC index ≦0.5, additivity/indifference FIC >0.5-4 and antagonism FIC index >4.
(§4) Antimicrobials used included PEP35, cefazolin, ceftriaxone, vancomycin, linezolid, tigecycline and daptomycin versus Gram-positive cocci and PEP35, gentamicin, levofloxacin, piperacillin/tazobactam, meropenem and colistin (Polymyxin E) versus Gram-negative bacilli. These agents were obtained as laboratory grade powders from their respective manufacturers. Stock solutions were prepared and dilutions made as described by the Clinical Laboratory Standards Institute (2005 CLSI).
Organisms included Gram-positive cocci (2 strains of each): Methicillin-susceptible Staphylococcus aureus (MSSA), community-associated (CA) and healthcare-associated (HA) methicillin-resistant Staphylococcus aureus (MRSA), vancomycin-intermediate Staphylococcus aureus (VISA), vancomycin-resistant Staphylococcus aureus (VRSA), methicillin-resistant Staphylococcus epidermidis (MRSE), Streptococcus pyogenes, Streptococcus agalactiae, Streptococcus pneumoniae, Enterococcus faecalis, Enterococcus faecium and vancomycin-resistant enterococcus (VRE). […]

P. aeruginosa = type: cell-based, Pseudomonas aeruginosa
Method: as §2, §1, §3, §4
(§5) Organisms included Gram-positive cocci (2 strains of each): Methicillin-susceptible Staphylococcus aureus (MSSA), community-associated (CA) and healthcare-associated (HA) methicillin-resistant Staphylococcus aureus (MRSA), vancomycin-intermediate Staphylococcus aureus (VISA), vancomycin-resistant Staphylococcus aureus (VRSA), methicillin-resistant Staphylococcus epidermidis (MRSE), Streptococcus pyogenes, Streptococcus agalactiae, Streptococcus pneumoniae, Enterococcus faecalis, Enterococcus faecium and vancomycin-resistant enterococcus (VRE). Gram-negative bacilli tested (2 strains of each) included: E. coli, Pseudomonas aeruginosa, Klebsiella pneumoniae, K. oxytoca, Enterobacter cloacae, P. mirabilis and Stenotrophomonas maltophilia. MIC testing, following two subcultures from frozen stock were determined by the CLSI 2005 approved broth microdilution method.

K. pneumoniae = type: cell-based, Klebsiella pneumoniae
Method: as §2, §1, §3, §4, §5

K. oxytoca = type: cell-based, Klebsiella oxytoca
Method: as §2, §1, §3, §4, §5

E. cloacae = type: cell-based, Enterobacter cloacae
Method: as §2, §1, §3, §4, §5

P. mirabilis = type: cell-based, Proteus mirabilis
Method: as §2, §1, §3, §4, §5

S. maltophilia = type: cell-based, Stenotrophomonas maltophilia
Method: as §2, §1, §3, §4, §5

gentamicin was tested, and the “Avg ΣFIC (range)” value (E. coli; E. coli 69716) was 1.4 (1.06-2.12), the “Avg ΣFIC (range)” value (E. coli; E. coli 70752) was 1.05 (0.75-1.25) and the “Avg ΣFIC (range)” value (P. aeruginosa; P. aeruginosa 70849) was 1.11 (1.03-1.25). For the same compound, the “Avg ΣFIC (range)” value (P. aeruginosa; P. aeruginosa 71841) was 1.05 (0.75-1.25), the “Avg ΣFIC (range)” value (K. pneumoniae; K. pneumoniae 70508) was 1.13 (1.0-1.25) and the “Avg ΣFIC (range)” value (K. pneumoniae; K. pneumoniae 77081) was 0.89 (0.56-1.25). For the same compound, the “Avg ΣFIC (range)” value (K. oxytoca; K. oxytoca 75316) was 1.24 (0.75-2.12), the “Avg ΣFIC (range)” value (K. oxytoca; K. oxytoca 76874) was 1.10 (0.75-2.06) and the “Avg ΣFIC (range)” value (E. cloacae; E. cloacae 80194) was 1.4 (0.5-2.12). For the same compound, the “Avg ΣFIC (range)” value (E. cloacae; E. cloacae 83128) was 1.05 (0.75-1.25), the “Avg ΣFIC (range)” value (P. mirabilis; P. mirabilis 80267) was >1* and the “Avg ΣFIC (range)” value (P. mirabilis; P. mirabilis 81569) was >1*. For the same compound, the “Avg ΣFIC (range)” value (S. maltophilia; S. maltophilia 73062) was 1.4 (0.62-2.25) and the “Avg ΣFIC (range)” value (S. maltophilia; S. maltophilia 77424) was 1.99 (1.0-4.25) and 1.98 (1.06-4.25).
For `C[C@H]1COc2c(N3CCN(C)CC3)c(F)cc3c(=O)c(C(=O)O)cn1c23` [Levofloxacin, levofloxacin], the “Avg ΣFIC (range)” value (E. coli; E. coli 69716) was 0.93 (0.56-1.12), the “Avg ΣFIC (range)” value (E. coli; E. coli 70752) was 1.13 (0.75-1.12) and the “Avg ΣFIC (range)” value (P. aeruginosa; P. aeruginosa 70849) was 1.21 (1.03-1.5). For the same compound, the “Avg ΣFIC (range)” value (P. aeruginosa; P. aeruginosa 71841) was 1.13 (1.0-1.25), the “Avg ΣFIC (range)” value (K. pneumoniae; K. pneumoniae 70508) was 0.97 (0.75-1.12) and the “Avg ΣFIC (range)” value (K. pneumoniae; K. pneumoniae 77081) was 1.14 (1.06-1.25). The “Avg ΣFIC (range)” value (K. oxytoca; K. oxytoca 75316) was 0.88 (0.53-1.25), the “Avg ΣFIC (range)” value (K. oxytoca; K. oxytoca 76874) was 0.94 (0.62-1.12) and the “Avg ΣFIC (range)” value (E. cloacae; E. cloacae 80194) was 1.13 (1.0-1.25). For the same compound, the “Avg ΣFIC (range)” value (E. cloacae; E. cloacae 83128) was 0.98 (0.75-1.12), the “Avg ΣFIC (range)” value (P. mirabilis; P. mirabilis 80267) was >1* and the “Avg ΣFIC (range)” value (P. mirabilis; P. mirabilis 81569) was >1*. The “Avg ΣFIC (range)” value (S. maltophilia; S. maltophilia 73062) was 1.21 (1.03-1.5) and the “Avg ΣFIC (range)” value (S. maltophilia; S. maltophilia 77424) was 0.94 (0.62-1.12).
